The values below come from patent US20230090742A1, “AMINOPYRIMIDINYLAMINOBENZONITRILE DERIVATIVES AS NEK2 INHIBITORS” (Sumitomo Pharma Oncology, Inc., priority 2020, published 2023).

SMILES strings stand for the structures.

Experiment [1] has as its system phosphorylation of PP1α and HEC1. The experiment is described as follows: Western blot analysis for phospho-PP1α and phospho-Hec1 in cell cycle synchronized MDA-MB-231 cells. It counts as cell-based. To be noted: double thymidine block and nocodazole, 10, 50, 100, and 500 nM. As to the method: Reagents. MDA-MB-231 (Breast adenocarcinoma, triple negative breast cancer) and SW480 (colorectal adenocarcinoma, stem-like subtype) cells were purchased from ATCC and cultured as per manufacturer's instruction. Thymidine (Sigma, T9250) stock solution (100 mM) was prepared in PBS. 2′-Deoxycytidine (Sigma, D897) stock solution (240 mM) was prepared in distilled H2O. Nocodazole (Selleck Chemicals, S2775) stock solution (5 mg/mL) was made in dimethyl sulfoxide (DMSO). FxCycle Far Red stain (F10348) for cell cycle analysis was purchased from Thermo Fisher Scientific.
Antibodies. […]
Cell Cycle Synchronization. […] Effectiveness of NEK2 inhibitors (Cmpd-16 and Cmpd-18) were assessed by adding small molecule inhibitors with nocodozole at 10, 50, 100, and 500 nM concentration at the time of nocodazole addition. […]
Immunoblot Analysis. […] Whole cell lysates were sonicated and centrifuged at 16000×g for 10 minutes at 4° C., and protein concentration of the supernatant were determined using BCA Protein assay kit (ThermoScientific, 23225). Equal amounts of protein lysates (30 μg/lane and 10 μg/lane only for Histone H3 immunoblots) were fractionated on a NuPAGE Novex 4%-12% Bis-Tris Protein Gel (Thermo Fisher Scientific, NP0335BOX) and transferred onto a low fluorescence PVDF membrane (Millipore, IPFL07810). […] Li-Cor Image Studio software was used for western blot analysis and quantification
In general terms: In western blotting, separated proteins are transferred to a membrane and probed.

Experiment [2] concerns the target T1, NEK2 kinase (Accession No. NP-002488) (Homo sapiens, UniProt P51955).
T1 construct: purchased ThermoFisher Scientific (Invitrogen)
T1 sequence (P51955 1-445): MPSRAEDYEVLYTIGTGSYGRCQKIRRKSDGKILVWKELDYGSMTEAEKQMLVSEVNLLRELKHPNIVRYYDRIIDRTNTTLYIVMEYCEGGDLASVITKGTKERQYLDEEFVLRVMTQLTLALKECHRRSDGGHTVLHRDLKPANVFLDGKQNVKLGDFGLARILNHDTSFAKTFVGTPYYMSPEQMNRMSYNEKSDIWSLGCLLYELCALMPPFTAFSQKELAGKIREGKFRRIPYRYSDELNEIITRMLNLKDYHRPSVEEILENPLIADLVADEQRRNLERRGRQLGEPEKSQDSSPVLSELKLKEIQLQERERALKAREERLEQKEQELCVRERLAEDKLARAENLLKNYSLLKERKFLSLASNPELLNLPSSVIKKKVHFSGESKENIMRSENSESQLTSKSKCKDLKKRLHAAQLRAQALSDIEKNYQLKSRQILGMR
Nature of the experiment: HotSpot Kinase Assay, NEK2. Format: biochemical. The following applies: HotSpot Kinase Assay; read-out: NEK2 IC50. As to the method:
In this example, the compounds described herein were tested for their inhibitory activity against NEK2 and/or Aurora A using the HotSpot™ Kinase Assay (Reaction Biology Corp.). The assay was performed according to the manufacturer's protocol, as detailed below. The NEK2 kinase (Accession No. NP-002488) and Aurora A kinase (Accession No. NP-940839) for use in these assays was sourced from ThermoFisher Scientific (Invitrogen).
The base Reaction Buffer used in this experiment contained the following: 20 mM Hepes (pH 7.5), 10 mM MgCl2, 1 mM EGTA, 0.02% Brij™-35, 0.02 mg/ml BSA, 0.1 mM Na3VO4, 2 mM DTT, and 1% DMSO. The required cofactors were added individually to each kinase reaction.
Testing compounds were dissolved in 100% DMSO to a specific concentration. The serial dilution was conducted by Integra Viaflo Assist in DMSO.
The substrate was prepared in freshly prepared Reaction Buffer. The required cofactors were delivered to the substrate solution described above. NEK2 kinase or Aurora A kinase was delivered to the substrate solution and gently mixed. Next, the compounds in 100% DMSO were transferred to the kinase reaction mixture by Acoustic technology (Echo550; nanoliter range) and incubated for 20 min at room temperature. ^33P-ATP (Specific activity 10 μCi/μl) was delivered into the reaction mixture to initiate the reaction. The reaction was incubated for 2 hours at room temperature. Radioactivity was then detected by the filter-binding method. Kinase activity data were expressed as the percent remaining kinase activity in test samples compared to vehicle (dimethyl sulfoxide) reactions. IC50 values and curve fits were obtained using Prism (GraphPad Software).

With `N#Cc1c(Nc2nc(Nc3ccc(N4CCNCC4)cc3)ncc2Cl)cccc1OCc1ccccc1F` [Compound 16, 2-((5-chloro-2-((4-(piperazin-1-yl)phenyl)amino)pyrimidin-4-yl)amino)-6-((2-fluorobenzyl)oxy)benzonitrile], the “phosphorylation of PP1α and HEC1 (HistoneH3 phosphorylation as marker of mitosis)” value in experiment [1] is “more specifically inhibited phosphorylation of PP1α and HEC1 without interfering in cell cycle progression than Cmpd-18”. For the same molecule, the IC50 in experiment [2] is no more than 5 nM.

By IC50 is commonly meant the concentration at which inhibition is half-maximal.
